# Reference: US4335211A, “Process for producing optically active cephalosporin analogs” (Kyowa Hakko Kogyo Co., Ltd., priority 1979, dated 1982)
# Assay: antimicrobial activity (statement in words)
# Format: cell-based
# Details: less polar isomer (A) versus more polar isomer (B)
smiles,measurement,value
"N[C@@H](C(=O)N[C@@H]1C(=O)N2C(C(=O)O)=C(Cl)CC[C@H]12)c1ccccc1 [Example 1, (6R, 7S) 7-(R)-phenylglycinamido-3-chloro-1-azabicyclo[4,2,0]oct-2-en-8-on-2-carboxylic acid]",antimicrobial activity,greater antimicrobial activity
